# Measurements as given in patent publication US5385884A, “Lipopeptide derivatives” (Merck & Co. Inc., priority 1991, dated 1995).
# Tests used:
# [1] = system: C. albicans; test: Minimum fungicidal concentration, microbroth dilution assay in YNBD; assay type: cell-based
# Description: The minimum inhibitory concentrations (MICs) were recorded as the lowest concentrations of drug showing no visible growth.
# After recording the MIC, the plates were shaken to resuspend the cells. […] The MFC is defined as the lowest concentration of drug showing no growth or less than 4 colonies per spot.
# [2] = system: Pneumocystis carinii; test: Pneumocystis carinii pneumonia in immunosuppressed rats; assay type: in vivo, Sprague-Dawley rats; conditions: intraperitoneally (I.P.) twice daily for four days
# Description: In a representative study, the effectiveness of Compound A-la was determined. Sprague-Dawley rats (weighing approximately 250 grams) were immunosuppressed with dexasone in the drinking water (2.0 mg/L) and maintained on a low protein diet for five weeks to induce the development of pneumocystis pneumonia from a latent infection. […] Six rats (weighing approximately 150 grams) were injected twice daily for four days intravenously (I.V.) via the tail vein with Compound A-la in 0.25 ml of vehicle (distilled water). A vehicle control was also carried out. All animals continued to receive dexasone in the drinking water and low protein diet during the treatment period. At the completion of the treatment, all animals were sacrificed, the lungs were removed and processed, and the extent of disease determined by microscopic analysis of stained slides.
# In a similar experiment, except that the rats were injected intraperitoneally (I.P.) twice daily for four days, the animals were sacrificed, the lungs removed and processed, and the extent of disease determined by microscopic analysis of stained slides.
substance,measurement,setting,value
"1-[4-hydroxy-N2-(10,12-dimethyl-1-oxotetradecyl)-ornithine]-4-[3-hydroxy-4' -O-phosphoryl-homotyrosine]-5-[3-hydroxyglutamine]-6-[3-hydroxyproline]echi nocandin B disodium salt [Compound A-2a]",Minimum Fungicidal Concentration,[1]; C. albicans MY 1028,2 µg/mL
same,Minimum Fungicidal Concentration,[1]; C. albicans MY 1208,2 µg/mL
same,ED90 for eliminating P. carinii cysts,[2],approximately 0.6 mg/kg
